The source of these data is ChEMBL document CHEMBL2029203, “Discovery of potent antimicrobial peptide analogs of Ixosin-B” (Bioorg Med Chem Lett, 2012).

The nature of data set [1]: Toxicity against human erythrocytes assessed as hemolysis at 100 uM after 1 hr by spectrophotometry. It counts as cell-based, Erythrocyte. The conditions noted are these: read-out: Activity.
For the next data set, the system named is Pseudomonas aeruginosa. Briefly: Antimicrobial activity against Pseudomonas aeruginosa ATCC 27853 after 18 to 20 hrs by spectrophotometry. It counts as functional.
The subject of data set [2] is Escherichia coli. Briefly: Antimicrobial activity against Escherichia coli ATCC 25922 after 18 to 20 hrs by spectrophotometry. It counts as functional.
The subject of data set [3] is Staphylococcus aureus. As to the kind of experiment: Antimicrobial activity against Staphylococcus aureus ATCC 25923 after 18 to 20 hrs by spectrophotometry. It counts as functional.
The subject of data set [4] is Staphylococcus aureus. As to the kind of experiment: Antimicrobial activity against Staphylococcus aureus. It counts as functional.
Data set [5] has as its system Escherichia coli. Briefly: Antimicrobial activity against Escherichia coli. It counts as functional.
The subject of a further data set is Candida albicans. Briefly: Antimicrobial activity against Candida albicans. It counts as functional.

In general, MIC refers to the smallest concentration in the dilution series that meets the test's criterion for growth inhibition. Low values mean greater potency, high ones weaker potency.

≈ marks a conversion by molar mass, not a printed value. Residues, ends and D or L forms follow the SMILES beside them.

As for `CC(C)C[C@H](NC(=O)[C@H](CCCNC(=N)N)NC(=O)[C@@H](N)CCCCN)C(=O)N[C@@H](CCCNC(=N)N)C(=O)N[C@@H](CCCNC(=N)N)C(=O)N[C@H](C(=O)N[C@@H](Cc1c[nH]c2ccccc12)C(=O)N[C@@H](CCCNC(=N)N)C(=O)N[C@@H](CCCNC(=N)N)C(=O)N[C@@H](Cc1c[nH]c2ccccc12)C(=O)N[C@@H](CCCNC(=N)N)C(N)=O)C(C)C` (H-KRLRRVWRRWR-NH2), the hemolysis at 1 h, 100 µM in data set [1] came to 3%. In addition, the MIC in the data set with Pseudomonas aeruginosa worked out at 20 µM (≈ 33.3 µg/mL); in the data set with Escherichia coli [2] it was 30 µM (≈ 50 µg/mL); in the data set on Staphylococcus aureus [3], 5 µM (≈ 8.34 µg/mL).

`CC(C)[C@H](NC(=O)[C@H](CC(=O)O)NC(=O)[C@H](CO)NC(=O)[C@@H](N)CCCCN)C(=O)N[C@@H](CCCNC(=N)N)C(=O)N[C@@H](CCCNC(=N)N)C(=O)N[C@@H](Cc1c[nH]c2ccccc12)C(=O)N[C@@H](CCCNC(=N)N)C(=O)N[C@@H](CO)C(=O)N[C@@H](CCCNC(=N)N)C(=O)N[C@@H](Cc1ccc(O)cc1)C(N)=O` (H-KSDVRRWRSRY-NH2): the MIC against Pseudomonas aeruginosa, against Escherichia coli [2] and against Staphylococcus aureus [3] was more than 100 µM in each case.

Take `CC(C)C[C@H](NC(=O)[C@H](CO)NC(=O)[C@@H](N)CCCCN)C(=O)N[C@@H](CCCNC(=N)N)C(=O)N[C@@H](CCCNC(=N)N)C(=O)N[C@H](C(=O)N[C@@H](Cc1c[nH]c2ccccc12)C(=O)N[C@@H](CCCNC(=N)N)C(=O)N[C@@H](CO)C(=O)N[C@@H](Cc1c[nH]c2ccccc12)C(=O)N[C@@H](CCCNC(=N)N)C(N)=O)C(C)C` (H-KSLRRVWRSWR-NH2): the hemolysis at 1 h, 100 µM in data set [1] was determined as 0%. Also, the MIC with Pseudomonas aeruginosa worked out at 40 µM (≈ 61.2 µg/mL); with Escherichia coli [2] it was 30 µM (≈ 45.9 µg/mL); in the data set on Staphylococcus aureus [3], 60 µM (≈ 91.7 µg/mL).

For the compound `CC(C)C[C@H](NC(=O)[C@H](CO)NC(=O)[C@@H](N)CCCCN)C(=O)N[C@H](C(=O)N[C@@H](CCCNC(=N)N)C(=O)N[C@@H](CCCNC(=N)N)C(=O)N[C@@H](Cc1c[nH]c2ccccc12)C(=O)N[C@@H](CCCNC(=N)N)C(=O)N[C@@H](CO)C(=O)N[C@@H](CCCNC(=N)N)C(=O)N[C@@H](Cc1c[nH]c2ccccc12)C(N)=O)C(C)C` (H-KSLVRRWRSRW-NH2), in data set [1], the hemolysis at 1 h, 100 µM was 0%. For the same compound, the MIC in the data set on Pseudomonas aeruginosa came to 40 µM (≈ 61.2 µg/mL); in the data set on Escherichia coli [2], 30 µM (≈ 45.9 µg/mL); against Staphylococcus aureus [3], 30 µM (≈ 45.9 µg/mL).

In the case of `CC(C)C[C@H](NC(=O)[C@H](Cc1c[nH]c2ccccc12)NC(=O)[C@@H](N)CCCCN)C(=O)N[C@@H](CCCNC(=N)N)C(=O)N[C@@H](CCCNC(=N)N)C(=O)N[C@H](C(=O)N[C@@H](Cc1c[nH]c2ccccc12)C(=O)N[C@@H](CCCNC(=N)N)C(=O)N[C@@H](Cc1c[nH]c2ccccc12)C(=O)N[C@@H](Cc1c[nH]c2ccccc12)C(=O)N[C@@H](CCCNC(=N)N)C(N)=O)C(C)C` (H-KWLRRVWRWWR-NH2), the hemolysis at 1 h, 100 µM in data set [1] is 100%. Besides, the MIC in the data set with Pseudomonas aeruginosa was 20 µM (≈ 34.5 µg/mL); in the data set with Escherichia coli [2], 15 µM (≈ 25.9 µg/mL); with Staphylococcus aureus [3], 2.5 µM (≈ 4.32 µg/mL).

Consider `CC[C@H](C)[C@H](NC(=O)CNC(=O)[C@H](CO)NC(=O)[C@H](CCCNC(=N)N)NC(=O)[C@@H](NC(=O)CNC(=O)[C@H](Cc1c[nH]c2ccccc12)NC(=O)[C@@H](N)CC(C)C)[C@@H](C)O)C(=O)N[C@@H](CCC(N)=O)C(=O)N1CCC[C@H]1C(=O)N[C@@H](CCC(=O)O)C(=O)N[C@@H](CCC(N)=O)C(=O)N[C@@H](Cc1cnc[nH]1)C(N)=O` (H-LWGTRSGIQPEQH-NH2), for which the MIC with Pseudomonas aeruginosa, against Escherichia coli [2] and against Staphylococcus aureus [3] was more than 100 µM throughout.

On to `CC(C)[C@H](NC(=O)[C@H](CC(=O)O)NC(=O)[C@H](CO)NC(=O)[C@H](CCCCN)NC(=O)CNC(=O)[C@H](CO)NC(=O)[C@H](CO)NC(=O)[C@H](Cc1cnc[nH]1)NC(=O)[C@@H](N)CCC(N)=O)C(=O)N[C@@H](CCCNC(=N)N)C(=O)N[C@@H](CCCNC(=N)N)C(=O)N[C@@H](Cc1c[nH]c2ccccc12)C(N)=O` (H-QHSSGKSDVRRW-NH2), for which the MIC with Pseudomonas aeruginosa, against Escherichia coli [2] and with Staphylococcus aureus [3] was more than 100 µM throughout.

As to `CC[C@H](C)[C@H](NC(=O)CNC(=O)[C@H](CO)NC(=O)[C@H](CCCNC(=N)N)NC(=O)[C@@H](NC(=O)CNC(=O)[C@H](Cc1c[nH]c2ccccc12)NC(=O)[C@H](CC(C)C)NC(=O)[C@H](CC(=O)O)NC(=O)[C@@H](NC(=O)[C@H](CCCCN)NC(=O)[C@H](CC(C)C)NC(=O)[C@@H](N)CCC(N)=O)C(C)C)[C@@H](C)O)C(N)=O` (H-QLKVDLWGTRSGI-NH2), the MIC against Pseudomonas aeruginosa, in the data set with Escherichia coli [2] and in the data set with Staphylococcus aureus [3] was more than 100 µM each time.

For `CC[C@H](C)[C@H](NC(=O)CNC(=O)[C@H](CO)NC(=O)[C@H](CCCNC(=N)N)NC(=O)[C@@H](NC(=O)CNC(=O)[C@H](Cc1c[nH]c2ccccc12)NC(=O)[C@H](CC(C)C)NC(=O)[C@H](CC(=O)O)NC(=O)[C@@H](NC(=O)[C@H](CCCCN)NC(=O)[C@H](CC(C)C)NC(=O)[C@@H](N)CCC(N)=O)C(C)C)[C@@H](C)O)C(=O)N[C@@H](CCC(N)=O)C(=O)N1CCC[C@H]1C(=O)N[C@@H](CCC(=O)O)C(=O)N[C@@H](CCC(N)=O)C(=O)N[C@@H](Cc1cnc[nH]1)C(=O)N[C@@H](CO)C(=O)N[C@@H](CO)C(=O)NCC(=O)N[C@@H](CCCCN)C(=O)N[C@@H](CO)C(=O)N[C@@H](CC(=O)O)C(=O)N[C@H](C(=O)N[C@@H](CCCNC(=N)N)C(=O)N[C@@H](CCCNC(=N)N)C(=O)N[C@@H](Cc1c[nH]c2ccccc12)C(=O)N[C@@H](CCCNC(=N)N)C(=O)N[C@@H](CO)C(=O)N[C@@H](CCCNC(=N)N)C(=O)N[C@@H](Cc1ccc(O)cc1)C(N)=O)C(C)C` [Ixosin-B-amide] (H-QLKVDLWGTRSGIQPEQHSSGKSDVRRWRSRY-NH2), the hemolysis at 1 h, 100 µM in data set [1] came to 0%. The MIC against Staphylococcus aureus [4] is 2.5 µg/mL (≈ 0.656 µM); against Pseudomonas aeruginosa, more than 80 µM; in the data set on Escherichia coli [2] it was 80 µM (≈ 305 µg/mL); against Escherichia coli [5], 15 µg/mL (≈ 3.93 µM); against Staphylococcus aureus [3] it was 80 µM (≈ 305 µg/mL); in the data set on Candida albicans, 7.5 µg/mL (≈ 1.97 µM).

`CC1(C)S[C@@H]2[C@H](NC(=O)Cc3ccccc3)C(=O)N2[C@H]1C(=O)O` [PENICILLIN G]: the MIC with Pseudomonas aeruginosa is more than 100 µM; with Escherichia coli [2] it was more than 100 µM; against Staphylococcus aureus [3] it was 0.5 µM (≈ 0.167 µg/mL).
